Reference: US20180008535A1, “Drug-Device Unit Containing Quinagolide” (Ferring B.V., priority 2014, published 2018)

Legend:
[1] = PK variables for quinagolide administered by an intravaginal ring in clinical study 000155; type: in vivo, healthy women; settings: for Tmax: median
Protocol: Following intravaginal administration the plasma concentration of quinagolide increased to reach a maximum at approximately 37-39 hours with a subsequent slow decline until the ring was removed (see FIG. 15). The mean time for reaching a maximum serum concentration was similar between all three dose groups but with substantial inter-individual variation. Cmax increased with increasing dose while the mean terminal half-life estimations were appropriately the same in all three doses (Table 21: above).

[2] = Plasma concentration of quinagolide and active metabolites in sheep with intravaginal rings; type: in vivo; settings: first and second sheep trials
Text: During the first and second sheep trials, the plasma concentration of quinagolide (Q) was monitored over the 28 day period. The plasma concentrations of active metabolites (M1 and M2: see FIG. 13) were also monitored in the sheep. The results are illustrated in FIG. 10 (see Tables 14 and 17 for quinagolide dose).

[3] = In vivo release profile of vaginal rings in clinical study 000155; parameters: species or system healthy women
[4] = vaginal ring dose load 400 μg, target release 5 μg/day
[5] = vaginal ring dose load 800 μg, target release 10 μg/day
[6] = vaginal ring dose load 1200 μg, target release 15 μg/day

## CCCN1C[C@@H](NS(=O)(=O)N(CC)CC)C[C@@H]2Cc3c(O)cccc3C[C@H]21 [quinagolide, N,N-diethyl-N′-[(3S,4aS, 10aR)-6-hydroxy-1-propyl-1,2,3,4,4a,5,10,10a-octahydrobenzo[g]quinolin-3-yl]sulfamide]
[1]; 400 μg intravaginal ring, Mean (SD)
  AUC Day 0-28 (Hpg/mL): 738 (236) Hpg/mL
[1]; 800 μg intravaginal ring, Mean (SD)
  AUC Day 0-28 (Hpg/mL): 1497 (379) Hpg/mL
[1]; 1200 μg intravaginal ring, Mean (SD)
  AUC Day 0-28 (Hpg/mL): 3297 (1040) Hpg/mL
[1]; female, human, plasma, 400 ug, 400 μg intravaginal ring, Mean (SD)
  Cmax: 3.4 pg/mL
[1]; female, human, plasma, 400 ug, 400 μg intravaginal ring
  Tmax: 48 h
[1]; female, human, plasma, 800 ug, 800 μg intravaginal ring, Mean (SD)
  Cmax: 5.3 pg/mL
[1]; female, human, plasma, 800 ug, 800 μg intravaginal ring
  Tmax: 48 h
[1]; female, human, plasma, 1200 ug, 1200 μg intravaginal ring, Mean (SD)
  Cmax: 10.9 pg/mL
[1]; female, human, plasma, 1200 ug, 1200 μg intravaginal ring
  Tmax: 36 h
[1]; female, human, plasma, other: intravaginal ring, 400 ug, printed in the 400 μg line only, Mean (SD), read-out: T½ (converted)
  half-life: 14 h
[1]; intravaginal administration, all three dose groups
  time at which plasma concentration of quinagolide reached a maximum: 37 to 39 h
[2]
  quinagolide concentration in the plasma at any point during the study: ≤ 50 pg/mL
[3]; [4]
  Average release 35 Days: 9.4 µg/day
  Average release 7 days: 10.4 µg/day
  Average release 28 days: 8.8 µg/day
[3]; [5]
  Average release 35 Days: 16.8 µg/day
  Average release 7 days: 24.1 µg/day
  Average release 28 days: 12.6 µg/day
[3]; [6]
  Average release 35 Days: 21.3 µg/day
  Average release 7 days: 43.4 µg/day
  Average release 28 days: 29.7 µg/day

## CCCN1CC(NS(=O)(=O)NCC)CC2Cc3c(O)cccc3CC21 (centres unmarked) [Batch M1]
[2]
  molar plasma concentration, fold lower than the quinagolide: approximately 10 fold

## CCCN1CC(NS(N)(=O)=O)CC2Cc3c(O)cccc3CC21 (centres unmarked) [Batch M2]
[2]
  molar plasma concentration, fold lower than the quinagolide: approximately 10 fold
